According to patent publication US20240239861A1, “GLUCAGON-RECEPTOR SELECTIVE POLYPEPTIDES AND METHODS OF USE THEREOF” (i2O Therapeutics, Inc., priority 2016, published 2024):
*1 amine or outer side, *2 acyl side, *3 side chain or, on linkers, in order; H or OH if unused. Where a SMILES comes first, the peptide text is derived from it. Side-chain parts run from the residue outwards. [ ]: non-standard residue; d: D form. The star is where a group is joined. γGlu = O=C(O)[C@H](CCC(=O)[*:2])N[*:1]; Palmitoyl = CCCCCCCCCCCCCCCC(=O)*; Aib = CC(C)(N)C(=O)O

Columns and labels:
[1] = biological target: human GLP-1R (Homo sapiens, UniProt P43220); test: Peptide-receptor mediated cAMP accumulation (LANCE Ultra cAMP) in CHO-K1 cells transfected with human GLP-1R; type: cell-based; conditions: Table 7; GLP-1R; read-out: GLP-1R pEC50 (converted)
Chain of human GLP-1R (P43220 24-463): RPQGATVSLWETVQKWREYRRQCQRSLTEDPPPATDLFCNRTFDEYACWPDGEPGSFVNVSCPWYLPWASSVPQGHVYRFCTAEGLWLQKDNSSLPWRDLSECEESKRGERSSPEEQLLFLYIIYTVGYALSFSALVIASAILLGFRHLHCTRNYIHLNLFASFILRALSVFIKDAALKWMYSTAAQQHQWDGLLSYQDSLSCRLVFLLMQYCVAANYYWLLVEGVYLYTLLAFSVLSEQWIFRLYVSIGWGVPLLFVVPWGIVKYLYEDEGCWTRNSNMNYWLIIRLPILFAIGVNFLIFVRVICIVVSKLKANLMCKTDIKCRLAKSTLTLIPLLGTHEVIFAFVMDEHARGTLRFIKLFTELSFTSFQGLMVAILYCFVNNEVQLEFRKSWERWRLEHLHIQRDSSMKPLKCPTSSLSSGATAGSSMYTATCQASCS

[2] = biological target: human GCGR (Homo sapiens, UniProt P47871); test: Peptide-receptor mediated cAMP accumulation (LANCE Ultra cAMP) in CHO-K1 cells transfected with human GCGR; type: cell-based; conditions: read-out: GluR pEC50 (converted)
Chain of human GCGR (P47871 26-477): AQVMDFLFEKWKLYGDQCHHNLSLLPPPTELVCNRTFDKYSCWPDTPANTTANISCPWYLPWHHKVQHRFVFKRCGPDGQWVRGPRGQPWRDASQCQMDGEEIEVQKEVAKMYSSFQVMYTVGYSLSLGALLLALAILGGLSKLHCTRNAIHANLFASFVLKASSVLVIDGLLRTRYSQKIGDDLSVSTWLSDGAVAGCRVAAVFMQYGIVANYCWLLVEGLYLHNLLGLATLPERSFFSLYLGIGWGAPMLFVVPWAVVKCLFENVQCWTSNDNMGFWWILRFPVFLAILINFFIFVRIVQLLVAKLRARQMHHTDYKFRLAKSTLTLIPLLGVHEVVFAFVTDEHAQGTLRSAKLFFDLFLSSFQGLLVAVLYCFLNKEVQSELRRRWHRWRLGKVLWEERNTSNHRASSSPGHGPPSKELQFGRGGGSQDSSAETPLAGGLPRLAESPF

| SMILES | EC50 [1] [nM] | EC50 [2] [nM] |
| --- | --- | --- |
| CCCCCCCCCCCCCCCC(=O)N[C@@H](CCC(=O)NCCCC[C@H](NC(=O)[C@H](CC(=O)O)NC(=O)[C@H](CC(C)C)NC(=O)[C@H](Cc1ccc(O)cc1)NC(=O)[C@H](CCCCN)NC(=O)[C@H](CO)NC(=O)[C@H](Cc1ccc(O)cc1)NC(=O)[C@H](CC(=O)O)NC(=O)[C@H](CO)NC(=O)[C@@H](NC(=O)[C@H](Cc1ccccc1)NC(=O)[C@@H](NC(=O)CNC(=O)[C@H](Cc1c[nH]cn1)NC(=O)[C@H](CO)NC(=O)[C@@H](N)Cc1ccc(O)cc1)[C@@H](C)O)[C@@H](C)O)C(=O)N[C@@H](CCCCN)C(=O)N[C@@H](CCCNC(=N)N)C(=O)N[C@@H](C)C(=O)N[C@@H](CCC(N)=O)C(=O)N[C@@H](CCC(=O)O)C(=O)N[C@@H](Cc1ccccc1)C(=O)N[C@H](C(=O)N[C@H](C(=O)N[C@@H](Cc1c[nH]c2ccccc12)C(=O)N[C@@H](CC(C)C)C(=O)N[C@@H](CCC(=O)O)C(=O)N[C@@H](CC(=O)O)C(=O)N[C@@H](CCC(=O)O)C(=O)N1CCC[C@H]1C(=O)N[C@@H](CO)C(=O)N[C@@H](CO)C(=O)NCC(=O)N[C@@H](C)C(=O)N1CCC[C@H]1C(=O)N1CCC[C@H]1C(=O)N1CCC[C@H]1C(=O)N[C@@H](CO)C(=O)O)[C@@H](C)CC)C(C)C)C(=O)O [Compound B26] | > 1000 | 0.01 |
| CCCCCCCCCCCCCCCC(=O)N[C@@H](CCC(=O)NCCCC[C@H](NC(=O)[C@H](CC(=O)O)NC(=O)[C@H](CO)NC(=O)[C@@H](NC(=O)[C@H](Cc1ccccc1)NC(=O)[C@@H](NC(=O)CNC(=O)[C@H](Cc1c[nH]cn1)NC(=O)[C@H](CO)NC(=O)[C@@H](N)Cc1ccc(O)cc1)[C@@H](C)O)[C@@H](C)O)C(=O)N[C@@H](CO)C(=O)N[C@@H](CCCCN)C(=O)N[C@@H](Cc1ccc(O)cc1)C(=O)N[C@@H](CC(C)C)C(=O)N[C@@H](CC(=O)O)C(=O)NC(C)(C)C(=O)N[C@@H](CCCCN)C(=O)N[C@@H](CCCNC(=N)N)C(=O)N[C@@H](C)C(=O)N[C@@H](CCC(N)=O)C(=O)N[C@@H](CCC(=O)O)C(=O)N[C@@H](Cc1ccccc1)C(=O)N[C@H](C(=O)N[C@H](C(=O)N[C@@H](Cc1c[nH]c2ccccc12)C(=O)N[C@@H](CC(C)C)C(=O)N[C@@H](CCC(=O)O)C(=O)N[C@@H](CC(=O)O)C(=O)N[C@@H](CCC(=O)O)C(=O)N1CCC[C@H]1C(=O)N[C@@H](CO)C(=O)N[C@@H](CO)C(=O)NCC(=O)N[C@@H](C)C(=O)N1CCC[C@H]1C(=O)N1CCC[C@H]1C(=O)N1CCC[C@H]1C(=O)N[C@@H](CO)C(=O)O)[C@@H](C)CC)C(C)C)C(=O)O [Compound B27] (H-YSHGTFTSDK([γGlu-Palmitoyl])SKYLD[Aib]KRAQEFVIWLEDEPSSGAPPPS-OH) | 251 | 0.00316 |
| CCCCCCCCCCCCCCCC(=O)N[C@@H](CCC(=O)NCCCC[C@H](NC(=O)[C@@H](NC(=O)[C@H](Cc1ccccc1)NC(=O)[C@H](CCC(=O)O)NC(=O)[C@H](CCC(N)=O)NC(=O)[C@H](C)NC(=O)[C@H](CCCNC(=N)N)NC(=O)[C@H](C)NC(=O)[C@H](C)NC(=O)[C@H](CC(=O)O)NC(=O)[C@H](CC(C)C)NC(=O)[C@H](Cc1ccc(O)cc1)NC(=O)[C@H](CCCCN)NC(=O)[C@H](CO)NC(=O)[C@H](Cc1ccc(O)cc1)NC(=O)[C@H](CC(=O)O)NC(=O)[C@H](CO)NC(=O)[C@@H](NC(=O)[C@H](Cc1ccccc1)NC(=O)[C@@H](NC(=O)CNC(=O)[C@H](CCC(N)=O)NC(=O)[C@H](CO)NC(=O)[C@@H](N)Cc1ccc(O)cc1)[C@@H](C)O)[C@@H](C)O)C(C)C)C(=O)N[C@@H](Cc1c[nH]c2ccccc12)C(=O)N[C@@H](CC(C)C)C(=O)N[C@@H](CCC(=O)O)C(=O)N[C@@H](CC(=O)O)C(=O)N[C@@H](CCC(=O)O)C(=O)N1CCC[C@H]1C(=O)N[C@@H](CCCCN)C(=O)N[C@@H](CO)C(=O)N[C@@H](CCCCN)C(=O)N[C@@H](CO)C(=O)N1CCC[C@H]1C(=O)N1CCC[C@H]1C(=O)N1CCC[C@H]1C(=O)N[C@@H](CO)C(N)=O)C(=O)O [Compound B34] (H-YSQGTFTSDYSKYLDAARAQEFVK([γGlu-Palmitoyl])WLEDEPKSKSPPPS-NH2) | > 1000 | 0.158 |
| CCCCCCCCCCCCCCCC(=O)N[C@@H](CCC(=O)NCCCC[C@H](NC(=O)[C@H](CC(=O)O)NC(=O)[C@H](CC(C)C)NC(=O)[C@H](Cc1ccc(O)cc1)NC(=O)[C@H](CCCCN)NC(=O)[C@H](CO)NC(=O)[C@H](Cc1ccc(O)cc1)NC(=O)[C@H](CC(=O)O)NC(=O)[C@H](CO)NC(=O)[C@@H](NC(=O)[C@H](Cc1ccccc1)NC(=O)[C@@H](NC(=O)CNC(=O)[C@H](CCC(N)=O)NC(=O)[C@H](CO)NC(=O)[C@@H](N)Cc1ccc(O)cc1)[C@@H](C)O)[C@@H](C)O)C(=O)N[C@@H](C)C(=O)N[C@@H](CCCNC(=N)N)C(=O)N[C@@H](C)C(=O)N[C@@H](CCC(N)=O)C(=O)N[C@@H](CCC(=O)O)C(=O)N[C@@H](Cc1ccccc1)C(=O)N[C@H](C(=O)N[C@@H](CCCCN)C(=O)N[C@@H](Cc1c[nH]c2ccccc12)C(=O)N[C@@H](CC(C)C)C(=O)N[C@@H](CCC(=O)O)C(=O)N[C@@H](CC(=O)O)C(=O)N[C@@H](CCC(=O)O)C(=O)N1CCC[C@H]1C(=O)N[C@@H](CCCCN)C(=O)N[C@@H](CO)C(=O)N[C@@H](CCCCN)C(=O)N[C@@H](CO)C(=O)N1CCC[C@H]1C(=O)N1CCC[C@H]1C(=O)N1CCC[C@H]1C(=O)N[C@@H](CO)C(N)=O)C(C)C)C(=O)O [Compound B35] (H-YSQGTFTSDYSKYLDK([γGlu-Palmitoyl])ARAQEFVKWLEDEPKSKSPPPS-NH2) | 251 | 0.00794 |
| CCCCCCCCCCCCCCCC(=O)N[C@@H](CCC(=O)NCCCC[C@H](NC(=O)[C@H](CC(=O)O)NC(=O)[C@H](CO)NC(=O)[C@@H](NC(=O)[C@H](Cc1ccccc1)NC(=O)[C@@H](NC(=O)CNC(=O)[C@H](CCC(N)=O)NC(=O)[C@H](CO)NC(=O)[C@@H](N)Cc1ccc(O)cc1)[C@@H](C)O)[C@@H](C)O)C(=O)N[C@@H](CO)C(=O)N[C@@H](CCCCN)C(=O)N[C@@H](Cc1ccc(O)cc1)C(=O)N[C@@H](CC(C)C)C(=O)N[C@@H](CC(=O)O)C(=O)N[C@@H](C)C(=O)N[C@@H](C)C(=O)N[C@@H](CCCNC(=N)N)C(=O)N[C@@H](C)C(=O)N[C@@H](CCC(N)=O)C(=O)N[C@@H](CCC(=O)O)C(=O)N[C@@H](Cc1ccccc1)C(=O)N[C@H](C(=O)N[C@@H](CCCCN)C(=O)N[C@@H](Cc1c[nH]c2ccccc12)C(=O)N[C@@H](CC(C)C)C(=O)N[C@@H](CCC(=O)O)C(=O)N[C@@H](CC(=O)O)C(=O)N[C@@H](CCC(=O)O)C(=O)N1CCC[C@H]1C(=O)N[C@@H](CCCCN)C(=O)N[C@@H](CO)C(=O)N[C@@H](CCCCN)C(=O)N[C@@H](CO)C(=O)N1CCC[C@H]1C(=O)N1CCC[C@H]1C(=O)N1CCC[C@H]1C(=O)N[C@@H](CO)C(N)=O)C(C)C)C(=O)O [Compound B36] (H-YSQGTFTSDK([γGlu-Palmitoyl])SKYLDAARAQEFVKWLEDEPKSKSPPPS-NH2) | 7.94 | 0.00316 |
| CCCCCCCCCCCCCCCC(=O)N[C@@H](CCC(=O)NCCCC[C@H](NC(=O)[C@@H](NC(=O)[C@H](Cc1ccccc1)NC(=O)[C@H](CCC(=O)O)NC(=O)[C@H](CCC(N)=O)NC(=O)[C@H](C)NC(=O)[C@H](CCCNC(=N)N)NC(=O)[C@H](C)NC(=O)[C@H](CO)NC(=O)[C@H](CC(=O)O)NC(=O)[C@H](CC(C)C)NC(=O)[C@H](Cc1ccc(O)cc1)NC(=O)[C@H](CCCCN)NC(=O)[C@H](CO)NC(=O)[C@H](Cc1ccc(O)cc1)NC(=O)[C@H](CC(=O)O)NC(=O)[C@H](CO)NC(=O)[C@@H](NC(=O)[C@H](Cc1ccccc1)NC(=O)[C@@H](NC(=O)CNC(=O)[C@H](Cc1c[nH]cn1)NC(=O)[C@H](CO)NC(=O)[C@@H](N)Cc1ccc(O)cc1)[C@@H](C)O)[C@@H](C)O)C(C)C)C(=O)N[C@@H](Cc1c[nH]c2ccccc12)C(=O)N[C@@H](CC(C)C)C(=O)N[C@@H](CCC(=O)O)C(=O)N[C@@H](CC(=O)O)C(=O)N[C@@H](CCC(=O)O)C(=O)N1CCC[C@H]1C(=O)N[C@@H](CO)C(=O)N[C@@H](CO)C(=O)NCC(=O)N[C@@H](C)C(=O)N1CCC[C@H]1C(=O)N1CCC[C@H]1C(=O)N1CCC[C@H]1C(=O)N[C@@H](CO)C(N)=O)C(=O)O [Compound B42] (H-YSHGTFTSDYSKYLDSARAQEFVK([γGlu-Palmitoyl])WLEDEPSSGAPPPS-NH2) | > 1000 | 0.2 |
| CCCCCCCCCCCCCCCC(=O)N[C@@H](CCC(=O)NCCCC[C@H](NC(=O)[C@H](CC(=O)O)NC(=O)[C@H](CC(C)C)NC(=O)[C@H](Cc1ccc(O)cc1)NC(=O)[C@H](CCCCN)NC(=O)[C@H](CO)NC(=O)[C@H](Cc1ccc(O)cc1)NC(=O)[C@H](CC(=O)O)NC(=O)[C@H](CO)NC(=O)[C@@H](NC(=O)[C@H](Cc1ccccc1)NC(=O)[C@@H](NC(=O)CNC(=O)[C@H](Cc1c[nH]cn1)NC(=O)[C@H](CO)NC(=O)[C@@H](N)Cc1ccc(O)cc1)[C@@H](C)O)[C@@H](C)O)C(=O)N[C@@H](C)C(=O)N[C@@H](CCCNC(=N)N)C(=O)N[C@@H](C)C(=O)N[C@@H](CCC(N)=O)C(=O)N[C@@H](CCC(=O)O)C(=O)N[C@@H](Cc1ccccc1)C(=O)N[C@H](C(=O)N[C@@H](CCCCN)C(=O)N[C@@H](Cc1c[nH]c2ccccc12)C(=O)N[C@@H](CC(C)C)C(=O)N[C@@H](CCC(=O)O)C(=O)N[C@@H](CC(=O)O)C(=O)N[C@@H](CCC(=O)O)C(=O)N1CCC[C@H]1C(=O)N[C@@H](CO)C(=O)N[C@@H](CO)C(=O)NCC(=O)N[C@@H](C)C(=O)N1CCC[C@H]1C(=O)N1CCC[C@H]1C(=O)N1CCC[C@H]1C(=O)N[C@@H](CO)C(N)=O)C(C)C)C(=O)O [Compound B43] | > 1000 | 0.00794 |
